{"source": "paper PMC5520057", "about": "“Modulation of nongenomic activation of PI3K signalling by tetramerization of N-terminally-cleaved RXRα” (Nature Communications, 2017)", "key": {"[1]": {"test_system": "RXRα-LBD/L433D", "test": "ITC, RXRα-LBD/L433D mutant", "format": "binding, human", "conditions": "25 °C, protein 50 μM, pH 7.5, compound 1 mM", "method": "(§1) The human RXRα LBD (residues Thr223 to Thr462) cloned as an N-terminal histidine-tagged fusion protein in pET15b expression vector was expressed in Escherichia coli BL21 strain (Stratagene). After sonication, cell extract was incubated with the His60 Ni Superflow resin, and His-tagged RXRα-LBD-resin complexes were washed, eluted and concentrated to 5 mg ml^−1 for subsequent trails. For crystallization experiment, bovine thrombin (Sigma) was used to cleave the His tag from the purified His-tagged RXRα-LBD. The resulting His tag was removed on the Resource-Q column (GE) using 0.1–1 M NaCl gradient and the Tris-Cl pH 8 buffer. RXRα-LDB was further purified using gel filtration on a Superdex 200 2660 column (GE) pre-equilibrated with the 75 mM NaCl, 20 mM Tris-Cl buffer (pH 8).\nBinding of compounds to RXRα-LBD or mutant was studied in […] at 25 °C using isothermal titration calorimetry (ITC) assay that measures the heat either released or absorbed during binding. The purified His-tagged RXRα-LBD or mutant protein (50 μM in 25 mM Tris-HCl, pH 7.5, 150 mM NaCl, 0.1% DMSO) was placed in the sample cell of MicroCal VP-ITC titration calorimeter. The compounds to be studied were diluted to a concentration of 1 mM in the same buffer. All solutions were degassed before the titrations. […] Calorimetric data were analysed using MicroCal Origin software (version 7.0)."}, "[2]": {"test_system": "RXRα", "test": "MMTV-PyMT tumours, RXRα immunostaining", "format": "in vivo, MMTV-PyMT mice", "conditions": "diet with K-80003 (100 mg kg^−1) for 4 weeks; Δ197 anti-RXRα antibody", "method": "(§2) Cells mounted on glass slides or tumour tissue frozen sections (5-μm-thick) were washed with PBS and fixed in 4% paraformaldehyde (PFA) for 15 min and permeabilized with PBS containing 0.1% Triton X-100 for 15 min. Fixed cells or tumour tissues were blocked with 5 mg ml^−1 BSA in PBS for 30 min at room temperature, followed with incubation with primary antibodies for 3 h and secondary antibodies at room temperature for 1 h and co-stained with 4′6′-diamidino-2-phenylindole (DAPI) to visualize nuclei. The images were taken under an LSM-510 confocal laser scanning microscope system (Carl Zeiss).\n(§3) For nude mice xenograft study, Myc-RXRα and Myc-tRXRα cloned into pcdna3.0 vector were stably transfected into MCF-7 cells, and the resulting stable clones and control clone (2 × 10^6 cells in 100 μl) were injected subcutaneously into nude mice (BALB/c, SPF grade, 16–18 g, 4–5-week old). For drug treatment, mice were intraperitoneally injected (i.p.) daily with K-80003 (20 mg kg^−1) diluted in Tween-80 or vehicle (tween-80). Body weight and tumour size were measured every 2 days. Mice were killed after 12-day drug treatment and the tumours removed for various assessments. […]"}, "[3]": {"test_system": "p85α / tRXRα interaction", "parameters": "method as in PMID 20541701", "conditions": "cited from earlier work"}, "[4]": {"test_system": "RXRα-LBD/Q275E", "test": "Non-denaturing gel electrophoresis, Q275E mutant", "format": "biochemical, human", "conditions": "K-80003 (20 μM), 3 h at 4 °C", "method": "as §1"}, "[5]": {"test_system": "tRXRα", "test": "MCF-7/tRXRα xenograft tumours, immunostaining", "format": "in vivo", "conditions": "nude mice; K-80003 20 mg kg^−1 i.p., 12 days; anti-Myc", "method": "as §2, §3"}, "[6]": {"molecular_target": "T1, RXRα-LBD (Homo sapiens, UniProt P19793)", "T1 construct": "The human RXRα LBD (residues Thr223 to Thr462); made in house; host or cells: Escherichia coli BL21", "T1 sequence (P19793 223-462)": "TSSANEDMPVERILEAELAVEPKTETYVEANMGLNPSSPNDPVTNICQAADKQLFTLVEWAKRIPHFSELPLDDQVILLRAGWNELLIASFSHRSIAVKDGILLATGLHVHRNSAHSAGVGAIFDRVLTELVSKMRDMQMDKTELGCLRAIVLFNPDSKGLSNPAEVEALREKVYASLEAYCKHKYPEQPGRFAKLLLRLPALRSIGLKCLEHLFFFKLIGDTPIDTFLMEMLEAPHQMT", "test": "Crystal structure of RXRα-LBD complex", "format": "binding", "conditions": "crystal structure at 2.6 Å, PDB 5TBP", "method": "as §1\nCrystallization conditions were initially determined using the sitting-drop vapor-diffusion method and the crystallization screens Index and PEG-Ion solutions from Hampton Research. Final crystals were obtained by cocrystallizing the protein and the ligand. The protein-ligand complex contained 0.35 mM of RXRα-LBD, 0.5–0.7 mM of a ligand, 1% DMSO, 100 mM NaCl and 20 mM Tris-Cl buffer (pH 7.6). 0.2 μl of the protein-ligand complex was mixed with 0.2 μl of the well solution (20% […] and 0.2 M Na Acetate) and incubated at 20 °C. Crystals appeared in 5–10 days and grew into 0.2 × 0.1 × 0.1 mm prisms. The crystals were flash-cooled in mother liquor containing 1.5 mM of K-80003 and 20% glycerol as a cryoprotectant. Diffraction data was collected from the cryo-cooled crystal (100 K) on an in-house diffractometer (Rigaku X-ray generator with a rotating anode, VariMax optic and R-AXIS HTC detector). Data was processed using the programme iMOSFLM, part of the CCP4 suite. The b-factor of the data set according to the Wilson plot was 60 Å^2.\nThe crystal structures were determined using the molecular replacement program Phaser[76] with pdb entry 4N8R as an initial model. Coot[77] and the program suite Phenix[78] were used for the model rebuilding and refinement. […]"}}}
{"smiles": "CC1=C(CC(=O)O)c2cc(F)ccc2/C1=C\\c1ccc(C(C)C)cc1", "note": "[K-80003]", "values": [{"measurement": "binding to RXRα-LBD/L433D", "setting": "[1]", "result": "failed to bind to RXRα-LBD/L433D"}, {"measurement": "RXRα staining localization in PyMT tumours", "setting": "[2]", "result": "mainly found in the nucleus"}, {"measurement": "inhibition of tRXRα interaction with p85α", "setting": "[3]", "result": "inhibits its interaction with p85α"}, {"measurement": "effect on tetramerization of Q275E mutant", "setting": "[4]", "result": "impaired the tetramerization of respective mutants by K-80003"}, {"measurement": "subcellular localization of tRXRα in xenograft tumours", "setting": "[5]", "result": "a significant amount of tRXRα was found in the nucleus"}, {"measurement": "binding mode", "setting": "[6]", "result": "‘3-pronged’ binding mode"}, {"measurement": "molecules bound per tetramer", "setting": "[6]", "result": "six molecules of K-80003-bound per tetramer"}, {"measurement": "molecules bound per interfacial cavity", "setting": "[6]; A1/B2 or A2/B1 cavity", "result": "three molecules per A1/B2 or A2/B1 interfacial cavity"}]}
